pIC50: −log10 of the molar value. Where “and” joins values, the source holds several entries; their conditions need not be identical. Equal values may be shown once. Where only a bound is given, the exact number is not on record here.

Among the data in PubChem BioAssay AID2060609 (Molecular Pharmacology Branch, DTP, NCI, 2025) are viability, T/C and IC50 values, retold here.

This test has as its system 855422-203-R-J1-PDC complex spheroids, viability. The test is described as follows: Anticancer human tumor 855422-203-R-J1-PDC patient-derived bladder carcinoma cell line growth inhibition [CLK]. As to conditions: for viability, T/C: stronger effect = lower value; for IC50: compound alone. An excerpt: A high-throughput screen of multi-cell type tumor spheroids was designed to identify active combinations of […] and targeted small molecules. Complex spheroids include a stromal component modeled by human endothelial cells (HUVEC) and fibroblasts modeled by human mesenchymal stem cells (MSCs). The concentration ranges selected for each drug and investigational agent were based upon clinically achievable concentrations if the clinical Cmax of the agent was known.
Compounds. The drugs and investigational agents: cirtuvivint (SM08502; NSC835563), CC-671 (NSC850746), vemurafenib (NSC761431), tapotoclax (NSC804041), sotorasib (NSC818433), adagrasib (NSC831453), MRTX-1133 (NSC836407), BAY2416964 (NSC825713), copanlisib (NSC816437), inavolisib (NSC800729), abemaciclib (NSC768073), osimertinib (NSC779217), entinostat (NSC756642), eltanexor (KPT-8602, NSC794443), venetoclax (NSC766270), ceralasertib (NSC777638), bortezomib (NSC756655), olaparib (NSC753686), talazoparib (NSC767125), alisertib (NSC759677), peposertib (NSC802822), gemcitabine (NSC613327), 5-fluorouracil (NSC19893), SN-38 (NSC673596), oxaliplatin (NSC266046), paclitaxel (NSC125973), and doxorubicin (NSC123127), were obtained from the National Cancer Institute (NCI) Developmental Therapeutics Program Chemical Repository. The FDA-approved anticancer drug set is available from the Developmental Therapeutics Program at https://dtp.cancer.gov/organization/dscb/obtaining/available plates.htm. […] The stock solutions were prepared in dimethyl sulfoxide (DMSO, Sigma-Aldrich, St. Louis, MO, cat. D2650), except for the platinum complexes which were prepared in saline (Quality Biological, Gaithersburg, MD, cat. 114-055-101), at 800-fold the tested concentration and stored at -70 degrees C prior to their use. All drugs and investigational agents were tested over a range starting from a high concentration at or near the clinical Cmax and decreasing in half-log increments. If the clinical Cmax for an agent had not been determined, the highest concentration tested was 10 microM.
Cell Culture. All cells were maintained in an incubator at 37 degrees C and 5% CO2 with 95% humidity. The PDC lines were cultured according to standard operating procedures established by the NCI PDMR. Briefly, all PDCs were thawed and cultured in Matrigel-coated flasks prepared with a working solution of 1X Ham's F-12 nutrient mix, without supplementation (Invitrogen, Waltham, MA, cat. 11765054), 100 U/mL penicillin-streptomycin (Invitrogen, cat. 15140122), and 2.5% Matrigel (Corning Inc., Corning, NY, cat. 354248) for the first three passages. The 947758-054-R-J2-PDC line was cultured in 6B/Colon 1A media, which includes advanced DMEM/F-12 (Thermo Fisher Scientific, cat. 12634028), 10 mM HEPES (Thermo Fisher Scientific, cat. 15630080), 1X GlutaMAX supplement (Thermo Fisher Scientific, cat. 35050061), 0.1 mg/mL primocin (InvivoGen, cat. ant-pm-2), 10% defined fetal bovine serum, heat inactivated (HyClone Laboratories Inc., cat. SH30070.03HI), 1.25 mM N-Acetyl-L-cysteine (Sigma-Aldrich, cat. A9165), 10 mM nicotinamide (Sigma-Aldrich, cat. N0636), 1X B-27 supplement (Thermo Fisher Scientific, cat. 17504044), 1X N-2 supplement (Thermo Fisher Scientific, cat. 17502048), and 10 microM Y-27632 dihydrochloride (Tocris Bioscience, cat. 1254). The 876862-298-R-J1-PDC was cultured in 6E media, which includes all 6B/Colon 1A media components plus 50% L-WRN conditioned media (ATCC, cat. CRL-3276), 50 ng/mL recombinant human EGF recombinant protein (hEGF; Thermo Fisher Scientific, cat. PHG0311), 10 ng/mL recombinant human fibroblast growth factor 10 (hGFG-10; PeproTech, cat. 100-26), 1 ng/mL recombinant human fibroblast growth factor 2 (hFGF-2; PeproTech, cat. 100-18B), and 1 µM prostaglandin E2 (PGE2; Tocris, cat. 2296). The 227483-062-R1-J1-PDC line was cultured in Panc media, containing all 6E components except hFGF-2, with the addition of 500 nM SB-431542 (Selleckchem, cat. S1067) and 10 nM gastrin (Tocris, cat. 3006). […]
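Further: spheroids exposed to drugs for seven days before readout.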
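Wherever viability, T/C is given: 100% = DMSO vehicle control wells.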

By viability, T/C is commonly meant the result in the treated group divided by that in the control group, in per cent. By pIC50 is commonly meant the negative decadic logarithm of the IC50, by convention in mol/L. For the compound `CC(=O)O[C@H]1C(=O)[C@@]2(C)[C@H]([C@H](OC(=O)c3ccccc3)[C@]3(O)C[C@H](OC(=O)[C@H](O)[C@@H](NC(=O)c4ccccc4)c4ccccc4)C(C)=C1C3(C)C)[C@]1(OC(C)=O)CO[C@@H]1C[C@@H]2O`, the viability, T/C is, setting by setting: (compound 0.0316 µM) 7.73% and 9%; (compound 0.1 µM) 9.43% and 8.68%; (compound 0.316 µM) 9.33% and 9.1%; (compound 1 µM) 8.48% and 7.37%; (compound 3.16 µM) 8.93% and 7.1%; (compound 10 µM) 9.93% and 9.02%. For the same compound, the pIC50 (curve of compound) is above 7.50.
What is called IC50 is the concentration at which inhibition is half-maximal. For the compound `CN1CCN(c2cc(C(=O)Nc3cc4cc(-c5cnn(C)c5)ccc4cn3)ccn2)CC1`, the viability, T/C (compound 0.1 µM) was 94% [middle of 12 runs]; the viability, T/C (compound 0.316 µM) is 9.83% [middle of 12 runs]; the viability, T/C (compound 1 µM) is 0.34% [middle of 11 runs]; the viability, T/C (compound 3.16 µM) was 0.57% [middle of 11 runs]; the viability, T/C (compound 10 µM) is 0.34% [middle of 11 runs]. In addition, the IC50 (run of 07/31/2023) is 181 nM [middle of 9 runs].
Regarding `CNC(=O)c1ccc(Nc2nc(OC3CCCC3)c3c(-c4ccc5nc(C)oc5c4)c[nH]c3n2)c(OC)c1`, the viability, T/C is 23.8% [middle of 12 runs] (compound 0.316 µM), 22.5% [middle of 12 runs] (compound 1 µM), 21.2% [middle of 12 runs] (compound 3.16 µM) and 20.1% [middle of 11 runs] (compound 10 µM). The IC50 (run of 08/01/2023) is 142 nM [middle of 11 runs].
Turning to `COc1ccc([C@@H](O)c2cc(-c3ncnc4cc(N5CCOCC5)ccc34)c(F)cc2Cl)nn1`, the viability, T/C (compound 0.0316 µM) was 95.2% and 115%; the viability, T/C (compound 0.1 µM) is 98.5% and 95.4%; the viability, T/C (compound 0.316 µM) is 105% and 107%; the viability, T/C (compound 1 µM) was 103% and 85.6%; the viability, T/C (compound 3.16 µM) is 64.8% and 64.9%; the viability, T/C (compound 10 µM) was 35.1% and 26.4%. In addition, the pIC50 (curve of compound) is 5.25 and 5.31.
For the compound `COc1cccc2c1C(=O)c1c(O)c3c(c(O)c1C2=O)CC(O)(C(=O)CO)CC3OC1CC(N)C(O)C(C)O1` (stereo not given), the viability, T/C by setting is: (compound 0.0316 µM) 15.1% and 13.7%; (compound 0.1 µM) 2.91% and 1.62%; (compound 0.316 µM) 1.09% and 1.08%; (compound 1 µM) 1.18% and 0.23%; (compound 3.16 µM) 0.29% and 0.47%; (compound 10 µM) 0.19% and 0.46%. Further, the pIC50 (curve of compound) is above 7.50.
As for `Nc1ccn(C2OC(CO)C(O)C2(F)F)c(=O)n1` (stereo not given), the viability, T/C by setting is: (compound 0.0316 µM) 26.9% and 25.7%; (compound 0.1 µM) 16.5% and 10.8%; (compound 0.316 µM) 17.8% and 15.2%; (compound 1 µM) 15.7% and 11.5%; (compound 3.16 µM) 11.1% and 9.45%; (compound 10 µM) 7.67% and 6.64%. In addition, where the note is “curve of compound”, the negative-log IC50 (pIC50) is above 7.50.
With `O=C(c1cc(Cc2n[nH]c(=O)c3ccccc23)ccc1F)N1CCN(C(=O)C2CC2)CC1`, the viability, T/C runs as follows: (compound 0.0316 µM) 118% and 121%; (compound 0.1 µM) 91.3% and 115%; (compound 0.316 µM) 110% and 104%; (compound 1 µM) 112% and 120%; (compound 3.16 µM) 119% and 130%; (compound 10 µM) 101% and 138%. Moreover, where the note is “curve of compound”, the negative-log IC50 (pIC50) is below 5.00.
As to `O=c1[nH]cc(F)c(=O)[nH]1`, the viability, T/C is 109% and 162% (compound 0.0316 µM); 103% and 123% (compound 0.1 µM); 86.9% and 104% (compound 0.316 µM); 60.5% and 74.4% (compound 1 µM); 51.7% and 56% (compound 3.16 µM); 40% and 45.8% (compound 10 µM). Moreover, the pIC50 (curve of compound) was 5.57 and 5.20.
For the compound `CCCS(=O)(=O)Nc1ccc(F)c(C(=O)c2c[nH]c3ncc(-c4ccc(Cl)cc4)cc23)c1F` + CN1CCN(c2cc(C(=O)Nc3cc4cc(-c5cnn(C)c5)ccc4cn3)ccn2)CC1, the pIC50 was 5.32 (curve of first compound, second compound 0.0316 µM); 5.30 (curve of first compound, second compound 0.1 µM); above 7.50 (curve of first compound, second compound 0.316 µM); above 7.50 (curve of first compound, second compound 1 µM); above 7.50 (curve of first compound, second compound 3.16 µM); above 7.50 (curve of first compound, second compound 10 µM). Further, the viability, T/C is 83.9% (second compound 0.0316 µM, first compound 0.0316 µM); 88.1% (second compound 0.0316 µM, first compound 0.1 µM); 103% (second compound 0.0316 µM, first compound 0.316 µM); 106% (second compound 0.0316 µM, first compound 1 µM); 76.5% (second compound 0.0316 µM, first compound 3.16 µM); 3.42% (second compound 0.0316 µM, first compound 10 µM). The viability, T/C reads like this: (second compound 0.1 µM, first compound 0.0316 µM) 74.2%; (second compound 0.1 µM, first compound 0.1 µM) 85.5%; (second compound 0.1 µM, first compound 0.316 µM) 87.9%; (second compound 0.1 µM, first compound 1 µM) 86.5%; (second compound 0.1 µM, first compound 3.16 µM) 81.8%; (second compound 0.1 µM, first compound 10 µM) 2.76%. The viability, T/C is 6.38% (second compound 0.316 µM, first compound 0.0316 µM); 8.19% (second compound 0.316 µM, first compound 0.1 µM); 9.52% (second compound 0.316 µM, first compound 0.316 µM); 7.73% (second compound 0.316 µM, first compound 1 µM); 6.35% (second compound 0.316 µM, first compound 3.16 µM); 1.15% (second compound 0.316 µM, first compound 10 µM). Moreover, the viability, T/C is 0.16% (second compound 1 µM, first compound 0.0316 µM); 0.18% (second compound 1 µM, first compound 0.1 µM); 0.46% (second compound 1 µM, first compound 0.316 µM); 0.19% (second compound 1 µM, first compound 1 µM); 0.19% (second compound 1 µM, first compound 3.16 µM); 0.08% (second compound 1 µM, first compound 10 µM). Also, the viability, T/C was 0.34% (second compound 3.16 µM, first compound 0.0316 µM); 0.68% (second compound 3.16 µM, first compound 0.1 µM); 0.32% (second compound 3.16 µM, first compound 0.316 µM); 0.46% (second compound 3.16 µM, first compound 1 µM); 1.09% (second compound 3.16 µM, first compound 3.16 µM); 0.77% (second compound 3.16 µM, first compound 10 µM). The viability, T/C is, setting by setting: (second compound 10 µM, first compound 0.0316 µM) 0.23%; (second compound 10 µM, first compound 0.1 µM) 0.51%; (second compound 10 µM, first compound 0.316 µM) 0.21%; (second compound 10 µM, first compound 1 µM) 0.35%; (second compound 10 µM, first compound 3.16 µM) 0.5%; (second compound 10 µM, first compound 10 µM) 0.29%.
